The source made the active and inactive calls. The calls are words filed in the database; no cut-off is given here.
What was measured:
[1] = Metabolic stability in human liver microsomes assessed as half life at 2 uM measured upto 60 mins by LC-MS/MS analysis; format: ADME, Microsome; details: 1 h
[2] = Metabolic stability in human liver microsomes assessed as parent compound remaining at 2 uM measured at 60 mins by LC-MS/MS analysis; format: ADME, Microsome; details: 1 h
[3] = Apparent permeability of the compound across basal to apical side in human Caco-2 cells expressing Pgp/BCRP at 10 uM incubated for 120 mins by LC-MS/MS analysis; format: ADME, cell-based; details: caco-2, 2 h
[4] = Apparent permeability of the compound across apical to basolateral side in human Caco-2 cells expressing Pgp/BCRP at 10 uM incubated for 120 mins by LC-MS/MS analysis; format: ADME, cell-based; details: caco-2, 2 h
[5] = Efflux ratio of apparent permeability across basolateral to apical side over apical to basolateral side in human Caco-2 cells expressing Pgp/BCRP at 10 uM incubated for 120 mins by LC-MS/MS analysis; format: ADME, cell-based; details: caco-2, 2 h
[6] = Cytotoxicity against human HMC3 cells assessed as reduction in cell viability incubated for 96 hrs by CellTiter 96 Aqueous One Solution Cell Proliferation Assay; format: toxicity, cell-based
[7] = Cytotoxicity against human ARPE-19 cells assessed as reduction in cell viability incubated for 96 hrs by CellTiter 96 Aqueous One Solution Cell Proliferation Assay; format: toxicity, cell-based
[8] = target: T1, Proteasome subunit beta type-9 (Homo sapiens, UniProt P28065); experiment: Inhibition of human LMP2 using Ac-PAL-AMC as substrate incubated for 1 hr by fluorescence based SpectraMax M5e plate reader
T1 sequence (P28065 whole entry): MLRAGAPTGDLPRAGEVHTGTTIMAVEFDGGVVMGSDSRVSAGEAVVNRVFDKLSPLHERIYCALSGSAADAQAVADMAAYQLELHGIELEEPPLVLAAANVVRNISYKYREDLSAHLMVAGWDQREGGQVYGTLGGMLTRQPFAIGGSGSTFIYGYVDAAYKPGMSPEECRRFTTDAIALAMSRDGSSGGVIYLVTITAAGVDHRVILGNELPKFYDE

HMC3 = experiment: Cytotoxicity against human HMC3 cells assessed as reduction in cell viability at 30 to 100 uM incubated for 96 hrs by CellTiter 96 Aqueous One Solution Cell Proliferation Assay; format: toxicity, cell-based; details: hmc3, 96 h, dose 30-100 µM
ARPE-19 = experiment: Cytotoxicity against human ARPE-19 cells assessed as reduction in cell viability at 30 to 100 uM incubated for 96 hrs by CellTiter 96 Aqueous One Solution Cell Proliferation Assay; format: toxicity, cell-based; details: arpe-19, 96 h, dose 30-100 µM
[9] = Mutagenicity in Salmonella typhimurium TA98 at 1 mg/ml incubated for 90 mins in absence of liver S9 fraction by AMES test; format: toxicity; details: salmonella enterica subsp. enterica serovar typhimurium, s9, 1.5 h
[10] = Mutagenicity in Salmonella typhimurium TA98 at 0.01 to 100 uM incubated for 90 mins in absence of liver S9 fraction by AMES test; format: toxicity; details: salmonella enterica subsp. enterica serovar typhimurium, s9, 1.5 h, dose 0.01-100 µM
[11] = Mutagenicity in Salmonella typhimurium TA98 at 0.01 to 100 uM incubated for 90 mins in presence of liver S9 fraction by AMES test; format: toxicity, subcellular; details: salmonella enterica subsp. enterica serovar typhimurium, s9, 1.5 h, dose 0.01-100 µM
[12] = Mutagenicity in Salmonella typhimurium TA100 at 0.01 to 100 uM incubated for 90 mins in absence of liver S9 fraction by AMES test; format: toxicity; details: salmonella enterica subsp. enterica serovar typhimurium, s9, 1.5 h, dose 0.01-100 µM
[13] = Mutagenicity in Salmonella typhimurium TA100 at 0.01 to 100 uM incubated for 90 mins in presence of liver S9 fraction by AMES test; format: toxicity, subcellular; details: salmonella enterica subsp. enterica serovar typhimurium, s9, 1.5 h, dose 0.01-100 µM
[14] = target: T2, Proteasome subunit beta type-9 (Mus musculus) (UniProt P28076); experiment: Covalent inhibition of LMP2 in mouse BV-2 cells assessed as band shift at 0.3 to 3 uM incubated for 24 hrs by Western blot analysis; format: cell-based; details: dose 0.3-3 µM
T2 sequence (whole entry): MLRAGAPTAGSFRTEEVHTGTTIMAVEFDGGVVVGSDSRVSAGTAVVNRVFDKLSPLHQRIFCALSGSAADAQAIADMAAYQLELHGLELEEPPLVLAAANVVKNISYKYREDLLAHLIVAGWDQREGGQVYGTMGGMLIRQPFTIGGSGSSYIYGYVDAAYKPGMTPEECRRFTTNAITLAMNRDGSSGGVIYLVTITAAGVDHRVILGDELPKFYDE

t1/2 [1] [min]	Stability [2]	Papp [3]	Papp [4]	Ratio [5]	IC50 [8] [nM]	inhibition [14]	SMILES	IC50 at 96 h [6] [nM]	IC50 at 96 h [7] [nM]	Activity (HMC3)	Activity (ARPE-19)	Activity [9]	Activity [10]	Activity [11]	Activity [12]	Activity [13]
13.4	4.57%	12.6 10^-6 cm/s	7.52 10^-6 cm/s	1.68	127	–	C[C@]1(C(=O)[C@H](Cc2ccccc2)NC(=O)[C@@H]2COCCCCCC(=O)N3C[C@H](F)C[C@H]3C(=O)N2)CO1	–	–	–	–	–	–	–	–	–
21.6	13.5%	14.4 10^-6 cm/s	29.1 10^-6 cm/s	0.52	–	–	CC(C)C[C@H](NC(=O)[C@@H]1COCCCCCC(=O)N2CC(F)(F)C[C@H]2C(=O)N1)C(=O)[C@@]1(C)CO1	> 100000	> 100000	Non-Toxic	Non-Toxic	Toxic	–	–	–	–
1.35	Unstable	3.33 10^-6 cm/s	5.91 10^-6 cm/s	0.56	–	–	C[C@]1(C(=O)[C@H](Cc2ccccc2)NC(=O)[C@@H]2Cc3ccc(cc3)OCCCCCCCC(=O)N3CCC[C@H]3C(=O)N2)CO1	–	–	–	–	–	–	–	–	–
8.29	0.3%	9.06 10^-6 cm/s	8.03 10^-6 cm/s	1.13	137	Active	C[C@]1(C(=O)[C@H](CC2=CCCC2)NC(=O)[C@@H]2COCCCCCC(=O)N3C[C@H](F)C[C@H]3C(=O)N2)CO1	> 100000	> 100000	Non-Toxic	Non-Toxic	–	Non-Toxic	Non-Toxic	Non-Toxic	Non-Toxic
43	38.8%	14.8 10^-6 cm/s	6.8 10^-6 cm/s	2.17	–	–	CC(C)C[C@H](NC(=O)[C@@H]1COCCCCCC(=O)N2CC[C@H]2C(=O)N1)C(=O)[C@@]1(C)CO1	> 30000	> 100000	Non-Toxic	Non-Toxic	–	Non-Toxic	Non-Toxic	Non-Toxic	Non-Toxic
–	Unstable	1.05 10^-6 cm/s	2.44 10^-6 cm/s	0.43	220	–	C[C@]1(C(=O)[C@H](CC2=CCCC2)NC(=O)[C@@H]2Cc3ccc(cc3)OCCCCCCCC(=O)N3CCC[C@H]3C(=O)N2)CO1	–	–	–	–	–	–	–	–	–

The remaining lines, values behind:

SMILES	t1/2 [1] [min]	Stability [2]	Papp [3]	Papp [4]	Ratio [5]	IC50 [8] [nM]	inhibition [14]	IC50 at 96 h [6] [nM]	IC50 at 96 h [7] [nM]	Activity (HMC3)	Activity (ARPE-19)	Activity [9]	Activity [10]	Activity [11]	Activity [12]	Activity [13]
CC(C)C[C@H](NC(=O)[C@@H]1COCCCCCCC(=O)NCC(=O)N2CCC[C@H]2C(=O)N1)C(=O)[C@@]1(C)CO1	24.1	17%	8.64 10^-6 cm/s	0.39 10^-6 cm/s	22.2	–	–	–	–	–	–	–	–	–	–	–
CC(C)C[C@H](NC(=O)[C@H](CCc1ccccc1)NC(=O)CN1CCOCC1)C(=O)N[C@@H](Cc1ccccc1)C(=O)N[C@@H](CC(C)C)C(=O)[C@@]1(C)CO1 [CARFILZOMIB]	1.34	Unstable	5.16 10^-6 cm/s	0.558 10^-6 cm/s	9.33	–	–	16	58	–	–	–	–	–	–	–
C[C@]1(C(=O)[C@H](Cc2ccccc2)NC(=O)[C@H](CO)NC(=O)c2cccc(=O)[nH]2)CO1	–	–	–	–	–	–	–	24100	> 30000	–	–	–	–	–	–	–
CC(C)C[C@H](NC(=O)[C@@H]1COCCCCCC(=O)NCC(=O)N2CCC[C@H]2C(=O)N1)C(=O)[C@@]1(C)CO1	55.3	46.4%	7.25 10^-6 cm/s	0.454 10^-6 cm/s	21.7	–	–	–	–	–	–	–	–	–	–	–
